± gives the standard deviation of the averaged measurements.
What was measured:
Details in all cases: treatment time: 3 days
[1] = test system: UT-SCC-24A; experiment: drug sensitivity score (DSS); higher = more sensitive
Procedure: (§1)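 HNSCC cell lines (500 cells/well, 384-well) were cultured on plastic, on top of (2D) or embedded (3D) in Matrigel or human leiomyoma matrix Myogel (500 ug/mL; Myogel 3D mixed with rat collagen I). Cells were treated for 3 days with 5 ten-fold concentrations of each drug, and viability was read by CellTiter-Glo. Suffixes _1/_2/_3 on drug names are replicates.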

[2] = test system: UT-SCC-106A; experiment: maximal % inhibition of viability relative to DMSO; higher = stronger effect
Procedure, shortened: (§2)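 HPV-negative HNSCC cell lines were seeded at 500 cells/well in 384-well plates on plastic, on Matrigel- or Myogel-coated wells (500 µg/mL), or embedded in Matrigel or Myogel plus rat collagen I. Compounds were given at five 10-fold concentrations for 3 days, and viability was read by CellTiter-Glo 2.0 luminescence. Signals were normalised to vehicle (0.1% DMSO) and cell-killing control wells. Percent-inhibition dose–response curves were fitted in the FIMM pipeline to derive IC50, maximal inhibition and drug sensitivity score.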

[3] = test system: UT-SCC-44; experiment: as above
Procedure, shortened: as §2

[4] = test system: UT-SCC-73; experiment: as above
Procedure, shortened: as §2

[5] = test system: UT-SCC-24A; experiment: maximal % inhibition of viability relative to DMSO; higher = stronger effect
Procedure: as §1, with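 “CellTiter-Glo. Viability was normalised to DMSO (0% inhibition) and 100 uM benzethonium chloride (100% inhibition) controls and fitted with the FIMM DSRT pipeline to give IC50 (nM), maximal % inhibition and the drug sensitivity score (DSS).” for “CellTiter-Glo.”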

[6] = test system: UT-SCC-106A; experiment: drug sensitivity score (DSS); higher = more sensitive; extreme values may be limits of the assay
Procedure, shortened: as §2

[7] = test system: UT-SCC-14; experiment: as above
Procedure, shortened: as §2

[8] = test system: UT-SCC-24B; experiment: as above
Procedure, shortened: as §2

[9] = test system: UT-SCC-28; experiment: as above
Procedure, shortened: as §2

[10] = test system: UT-SCC-40; experiment: as above
Procedure, shortened: as §2

[11] = test system: UT-SCC-42A; experiment: as above
Procedure, shortened: as §2

[12] = test system: UT-SCC-42B; experiment: as above
Procedure, shortened: as §2

[13] = test system: UT-SCC-44; experiment: as above
Procedure, shortened: as §2

[14] = test system: UT-SCC-73; experiment: as above
Procedure, shortened: as §2

[15] = test system: UT-SCC-81; experiment: as above
Procedure, shortened: as §2

[16] = test system: UT-SCC-8; experiment: as above
Procedure, shortened: as §2

[17] = culture condition: embedded in Matrigel
[18] = culture condition: embedded in Myogel + collagen I
[19] = culture condition: on top of Matrigel
[20] = culture condition: on top of Myogel
[21] = culture condition: plastic 2D (no matrix)

C=CC(=O)Nc1cc2c(Nc3ccc(F)c(Cl)c3)ncnc2cc1OCCCN1CCOCC1 [Canertinib]
drug sensitivity score [1, 17]: 27.8 ± 2 DSS | drug sensitivity score [1, 18]: 11 ± 3.6 DSS | drug sensitivity score [1, 19]: 23.5 ± 0.87 DSS | drug sensitivity score [1, 20]: 8.7 ± 0.2 DSS | drug sensitivity score [1, 21]: 23.5 ± 1.5 DSS | maximal % inhibition of viability [2, 17]: 95.6 ± 2% | maximal % inhibition of viability [2, 18]: 95.1 ± 1.2% | maximal % inhibition of viability [2, 19]: 97.3 ± 2.1% | maximal % inhibition of viability [2, 20]: 97.6 ± 1% | maximal % inhibition of viability [2, 21]: 98.83 ± 0.94% | maximal % inhibition of viability [3, 17]: 77.5 ± 7% | maximal % inhibition of viability [3, 18]: 92.5 ± 2.4% | maximal % inhibition of viability [3, 19]: 92 ± 3.6% | maximal % inhibition of viability [3, 20]: 95 ± 3.5% | maximal % inhibition of viability [3, 21]: 94.1 ± 3.5% | maximal % inhibition of viability [4, 17]: 99.5 ± 0.46% | maximal % inhibition of viability [4, 18]: 99.57 ± 0.59% | maximal % inhibition of viability [4, 19]: 99.13 ± 0.78% | maximal % inhibition of viability [4, 20]: 98.9 ± 0.98% | maximal % inhibition of viability [4, 21]: 99.5 ± 0.7% | maximal % inhibition of viability [5, 17]: 99.57 ± 0.38% | maximal % inhibition of viability [5, 18]: 99.17 ± 0.74% | maximal % inhibition of viability [5, 19]: 99.7 ± 0.36% | maximal % inhibition of viability [5, 20]: 99 ± 0.87% | maximal % inhibition of viability [5, 21]: 99.5 ± 0.62% | drug sensitivity score [6, 17]: 15.8 ± 1.5 DSS | drug sensitivity score [6, 18]: 5.8 ± 0.1 DSS | drug sensitivity score [6, 19]: 19.2 ± 1.5 DSS | drug sensitivity score [6, 20]: 7.13 ± 0.71 DSS | drug sensitivity score [6, 21]: 21 ± 0.93 DSS | drug sensitivity score [7, 17]: 27 ± 0.3 DSS | drug sensitivity score [7, 18]: 11.2 ± 2.8 DSS | drug sensitivity score [7, 19]: 26.6 ± 0.94 DSS | drug sensitivity score [7, 20]: 16.5 ± 2.1 DSS | drug sensitivity score [7, 21]: 25.6 ± 1.9 DSS | drug sensitivity score [8, 17]: 17.8 ± 0.7 DSS | drug sensitivity score [8, 18]: 9.13 ± 0.25 DSS | drug sensitivity score [8, 19]: 18.1 ± 0.57 DSS | drug sensitivity score [8, 20]: 9.17 ± 0.12 DSS | drug sensitivity score [8, 21]: 26.2 ± 0.55 DSS | drug sensitivity score [9, 17]: 4.2 ± 0.5 DSS | drug sensitivity score [9, 18]: 8.6 ± 0.27 DSS | drug sensitivity score [9, 19]: 7.8 ± 0.6 DSS | drug sensitivity score [9, 21]: 7 ± 0.56 DSS | drug sensitivity score [10, 17]: 27.4 ± 1.1 DSS | drug sensitivity score [10, 18]: 10.4 ± 1.9 DSS | drug sensitivity score [10, 19]: 26.2 ± 0.62 DSS | drug sensitivity score [10, 20]: 10 ± 1.6 DSS | drug sensitivity score [10, 21]: 18.6 ± 0.5 DSS | drug sensitivity score [11, 17]: 17.1 ± 0.32 DSS | drug sensitivity score [11, 18]: 7.67 ± 1.3 DSS | drug sensitivity score [11, 19]: 18.4 ± 1.2 DSS | drug sensitivity score [11, 20]: 9.8 ± 0.98 DSS | drug sensitivity score [11, 21]: 17.9 ± 0.98 DSS | drug sensitivity score [12, 17]: 23.7 ± 2.4 DSS | drug sensitivity score [12, 19]: 16.9 ± 2 DSS | drug sensitivity score [12, 20]: 6.83 ± 0.35 DSS | drug sensitivity score [12, 21]: 12 ± 1.2 DSS | drug sensitivity score [13, 17]: 4 ± 0.3 DSS | drug sensitivity score [13, 18]: 6.57 ± 1.5 DSS | drug sensitivity score [13, 19]: 8.2 ± 0.27 DSS | drug sensitivity score [13, 20]: 7.47 ± 2.1 DSS | drug sensitivity score [13, 21]: 7.63 ± 1.1 DSS | drug sensitivity score [14, 17]: 7.6 ± 1.1 DSS | drug sensitivity score [14, 18]: 7.73 ± 2.5 DSS | drug sensitivity score [14, 19]: 8.83 ± 0.23 DSS | drug sensitivity score [14, 20]: 8.53 ± 0.75 DSS | drug sensitivity score [14, 21]: 8.87 ± 0.15 DSS | drug sensitivity score [15, 17]: 29.4 ± 1.3 DSS | drug sensitivity score [15, 18]: 9.43 ± 3.1 DSS | drug sensitivity score [15, 19]: 27.53 ± 0.12 DSS | drug sensitivity score [15, 20]: 8.9 ± 0.27 DSS | drug sensitivity score [15, 21]: 26.1 ± 0.51 DSS | drug sensitivity score [16, 17]: 29.83 ± 0.058 DSS | drug sensitivity score [16, 18]: 4.77 ± 0.81 DSS | drug sensitivity score [16, 19]: 29.7 ± 0.64 DSS | drug sensitivity score [16, 20]: 11.6 ± 2.1 DSS | drug sensitivity score [16, 21]: 29 ± 0.85 DSS

From the supplement of paper PMC7017272
